Where two headings read alike, the source gives them in different places.

We go through 47 compounds from US9169252B2 (BRISTOL-MYERS SQUIBB COMPANY, priority 2014, dated 2015).

In assay [1] the target is IRAK4 (Homo sapiens (Human), UniProt Q9NWZ3). The experiment in a line: IRAK4 Inhibition Assay. The note with it: IRAK4 Inhibition Assay; ATP 500 μM; read-out: IRAK4 IC50. It counts as biochemical. The method in brief: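 IRAK4 combined with fluorescent substrate and compounds, reacted 60 min at room temperature, stopped with 35 mM EDTA. Substrate and phosphorylated product separated electrophoretically on a Caliper LabChip 3000 mobility-shift reader.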
IRAK4, sequence (Q9NWZ3 whole entry, species assumed): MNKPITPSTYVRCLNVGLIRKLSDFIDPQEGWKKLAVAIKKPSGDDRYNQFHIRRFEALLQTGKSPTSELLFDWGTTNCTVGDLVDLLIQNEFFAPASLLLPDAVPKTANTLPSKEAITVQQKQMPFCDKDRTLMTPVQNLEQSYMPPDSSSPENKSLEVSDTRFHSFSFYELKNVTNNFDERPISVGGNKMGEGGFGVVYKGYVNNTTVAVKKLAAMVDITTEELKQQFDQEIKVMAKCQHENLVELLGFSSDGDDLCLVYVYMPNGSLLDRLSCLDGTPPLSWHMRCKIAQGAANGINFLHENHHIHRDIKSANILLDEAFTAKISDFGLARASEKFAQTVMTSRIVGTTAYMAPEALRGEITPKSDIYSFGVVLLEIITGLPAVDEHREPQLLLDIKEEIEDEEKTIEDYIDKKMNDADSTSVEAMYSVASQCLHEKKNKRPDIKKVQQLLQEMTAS

Assay [2] concerns TLR2 induced IL-6 in peripheral blood mononuclear cells (PBMCs). Put plainly: PBMC TLR2 Induced IL-6 Assay. To be noted: PBMC TLR2 Induced IL-6 Assay, lipoteichoic acid stimulation, IL-6 by ELISA; for IC50: read-out: Cell IC50; for EC50: read-out: Cell EC50. It is filed as cell-based, human. The method in brief: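 Lipoteichoic acid at 10 µg/ml served as TLR2 stimulus for 5 hours, following a 30-minute compound pretreatment at 37° C. Cells were Ficoll-isolated human PBMCs, 250000 cells/well, cultured in RPMI plus 10% heat-inactivated FCS.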

In the case of `CC(C)Nc1cc(-n2ncc3cc(C#N)cnc32)ncc1C(=O)NCCC1(O)CC1` [Example 331], the IC50 in assay [1] was 6.2 nM; in assay [2] (Homo sapiens, PBMC) it was 57 nM.

In the case of `CC(C)Nc1cc(-n2ncc3cc(C#N)cnc32)ncc1C(=O)NCCC(C)(F)F` [Example 332], the IC50 in assay [1] came out at 13 nM; in assay [2] (Homo sapiens, PBMC) it was 159 nM.

`CC(C)Nc1cc(-n2ncc3cnc(NC[C@@H](F)C(C)(C)O)nc32)ncc1C(=O)NC[C@@H](F)C(C)(C)O` [Example 334]: the IC50 in assay [1] was 18.5 nM. In assay [2] (Homo sapiens, PBMC), the EC50 turned out to be 460 nM.

`CC(C)Nc1cc(-n2ncc3cc(C#N)cnc32)ncc1C(=O)NC[C@@H](F)C(C)(C)O` [Example 335]: the IC50 in assay [1] came to 3.3 nM. For the same compound, the EC50 in assay [2] was found to be 77 nM.

With `CC(C)(O)[C@H](F)CNC(=O)c1cnc(-n2ncc3cc(C#N)cnc32)cc1NC1CC1` [Example 336], the IC50 in assay [1] stood at 3.8 nM; in assay [2] (Homo sapiens, PBMC), 556 nM. For the same compound, the EC50 in assay [2] was 168 nM.

Turning to `CC(C)(O)[C@H](F)CNC(=O)c1cnc(-n2cnc3cc(C#N)cnc32)cc1NC1CCC1` [Example 338], the IC50 was 4.5 nM in assay [1] and 147 nM in assay [2] (Homo sapiens, PBMC).

As to `CC(C)Nc1cc(-n2cnc3cc(Cl)cnc32)ncc1C(=O)NC[C@@H](F)C(C)(C)O` [Example 339], the IC50 in assay [1] amounted to 4 nM; in assay [2] (Homo sapiens, PBMC), 332 nM.

Regarding `CC(C)(O)[C@H](F)CNC(=O)c1cnc(-n2cnc3cc(Cl)cnc32)cc1NC1COC1` [Example 340], the IC50 in assay [1] is 10 nM. For the same compound, the EC50 in assay [2] (Homo sapiens, PBMC) stood at 536 nM.

For the compound `CC(C)Nc1cc(-n2cnc3cc(C#N)c(N)nc32)ncc1C(=O)NC[C@@H](F)C(C)(C)O` [Example 341], in assay [1], the IC50 turned out to be 1.9 nM. The EC50 in assay [2] (Homo sapiens, PBMC) came out at 161 nM.

Take `CC(C)Nc1cc(-n2cnc3cc(C#N)cnc32)ncc1C(=O)NC[C@@H](F)C(C)(C)F` [Example 342]: the IC50 was 8.7 nM in assay [1] and 423 nM in assay [2] (Homo sapiens, PBMC).

As for `CC1(Nc2cc(-n3cnc4cc(C#N)cnc43)ncc2C(=O)NC[C@@H](F)C(C)(C)O)CC1` [Example 343], the IC50 in assay [1] was determined as 3.5 nM; in assay [2] (Homo sapiens, PBMC), 428 nM.

In the case of `CC(C)(F)[C@H](F)CNC(=O)c1cnc(-n2cnc3cc(C#N)cnc32)cc1NC1COC1` [Example 344], the IC50 was 13.5 nM in assay [1] and 144 nM in assay [2] (Homo sapiens, PBMC).

For `CC(C)(O)[C@H](F)CNC(=O)c1cnc(-n2cnc3cc(C#N)cnc32)cc1NC1CCOCC1` [Example 345], the IC50 was 7.4 nM in assay [1] and 180 nM in assay [2] (Homo sapiens, PBMC).

On to `CC(C)Nc1cc(-n2cnc3cnc(N)nc32)ncc1C(=O)NC[C@@H](F)C(C)(C)F` [Example 346], for which the IC50 in assay [1] worked out at 3.6 nM; in assay [2] (Homo sapiens, PBMC), 306 nM.

With `CC(C)(O)[C@H](F)CNC(=O)c1cnc(-n2ncc3cc(C#N)cnc32)cc1Nc1cnn(CC(F)F)c1` [Example 347, (R)-6-(5-Cyano-1H-pyrazolo[3,4-b]pyridin-1-yl)-4-((1-(2,2-difluoroethyl)-1H-pyrazol-4-yl)amino)-N-(2-fluoro-3-hydroxy-3-methylbutyl)nicotinamide], the IC50 in assay [1] amounted to 1.3 nM; in assay [2] (Homo sapiens, PBMC), 146 nM.

For `CC(C)(O)[C@H](F)CNC(=O)c1cnc(-n2ncc3cc(C#N)cnc32)cc1Nc1cnn(C2COC2)c1` [Example 348], the IC50 in assay [1] was determined as 1.8 nM; in assay [2] (Homo sapiens, PBMC), 489 nM.

Regarding `CC(C)(O)[C@H](F)CNC(=O)c1cnc(-n2ncc3cc(C#N)cnc32)cc1Nc1cnn(C2CCOCC2)c1` [Example 349], the IC50 is 3.3 nM in assay [1] and 180 nM in assay [2] (Homo sapiens, PBMC).

Consider `CC(C)(O)[C@H](F)CNC(=O)c1cnc(-n2ncc3cc(Cl)cnc32)cc1Nc1cnn(CC(F)F)c1` [Example 351], for which the concentration for half-maximal inhibition (IC50) in assay [1] is 2.3 nM; in assay [2] (Homo sapiens, PBMC) it was 27 nM.

On to `CC(C)(O)[C@H](F)CNC(=O)c1cnc(-n2ncc3cc(Cl)cnc32)cc1Nc1cnn(C2CCOCC2)c1` [Example 352], for which the IC50 in assay [1] came to 6.5 nM; in assay [2] (Homo sapiens, PBMC), 170 nM.

As to `CC(C)(O)[C@H](F)CNC(=O)c1cnc(-n2ncc3cc(C#N)cnc32)cc1Nc1cnn(CC(F)(F)F)c1` [Example 353], the IC50 in assay [1] is 1.7 nM; in assay [2] (Homo sapiens, PBMC) it was 18 nM.

Take `CC(C)(O)[C@H](F)CNC(=O)c1cnc(-n2ncc3cc(Cl)cnc32)cc1Nc1cnn(CC(F)(F)F)c1` [Example 354]: the IC50 in assay [1] was 1.9 nM; in assay [2] (Homo sapiens, PBMC) it was 115 nM.

As to `CCn1cc(Nc2cc(-n3ncc4cc(C#N)cnc43)ncc2C(=O)NC[C@@H](F)C(C)(C)O)cn1` [Example 355], the IC50 in assay [1] was determined as 2.4 nM; in assay [2] (Homo sapiens, PBMC) it was 122 nM.

Take `CC(C)(F)Cn1cc(Nc2cc(-n3ncc4cc(C#N)cnc43)ncc2C(=O)NC[C@@H](F)C(C)(C)O)cn1` [Example 356]: the IC50 in assay [1] came out at 2.4 nM; in assay [2] (Homo sapiens, PBMC), 154 nM.

On to `CCn1cc(Nc2cc(-n3ncc4cc(Cl)cnc43)ncc2C(=O)NC[C@@H](F)C(C)(C)O)cn1` [Example 357], for which the half-inhibitory concentration (IC50) in assay [1] came out at 1.7 nM; in assay [2] (Homo sapiens, PBMC), 67 nM.

Regarding `CC(C)n1cc(Nc2cc(-n3ncc4cc(Cl)cnc43)ncc2C(=O)NC[C@@H](F)C(C)(C)O)cn1` [Example 358], the IC50 is 3.5 nM in assay [1] and 257 nM in assay [2] (Homo sapiens, PBMC).

Regarding `CC(C)(O)[C@H](F)CNC(=O)c1cnc(-n2cnc3cc(Cl)cnc32)cc1Nc1cnn(CC(F)F)c1` [Example 359], the IC50 in assay [1] was determined as 1.3 nM; in assay [2] (Homo sapiens, PBMC), 84 nM.

For the compound `CC(C)(O)[C@H](F)CNC(=O)c1cnc(-n2cnc3cc(Cl)cnc32)cc1Nc1cnn(CC(F)(F)F)c1` [Example 360], the half-inhibitory concentration (IC50) in assay [1] was 1.5 nM; in assay [2] (Homo sapiens, PBMC), 376 nM.

As for `CCn1cc(Nc2cc(-n3cnc4cc(Cl)cnc43)ncc2C(=O)NC[C@@H](F)C(C)(C)O)cn1` [Example 361], the IC50 in assay [1] was determined as 2.9 nM; in assay [2] (Homo sapiens, PBMC), 206 nM.

Regarding `CC(C)n1cc(Nc2cc(-n3cnc4cc(Cl)cnc43)ncc2C(=O)NC[C@@H](F)C(C)(C)O)cn1` [Example 362], the IC50 in assay [1] worked out at 4.3 nM; in assay [2] (Homo sapiens, PBMC), 486 nM.

Turning to `COCCn1cc(Nc2cc(-n3ncc4cc(C#N)cnc43)ncc2C(=O)NC[C@@H](F)C(C)(C)O)cn1` [Example 363], the IC50 in assay [1] worked out at 3.2 nM; in assay [2] (Homo sapiens, PBMC) it was 459 nM.

As for `COCCn1cc(Nc2cc(-n3ncc4cc(Cl)cnc43)ncc2C(=O)NC[C@@H](F)C(C)(C)O)cn1` [Example 364], the IC50 is 2.6 nM in assay [1] and 83 nM in assay [2] (Homo sapiens, PBMC).

With `CC(F)(F)Cn1cc(Nc2cc(-n3ncc4cc(C#N)cnc43)ncc2C(=O)NC[C@@H](F)C(C)(C)O)cn1` [Example 365], the half-maximal inhibitory concentration (IC50) came to 1.7 nM in assay [1] and 66 nM in assay [2] (Homo sapiens, PBMC).

Regarding `COCCn1cc(Nc2cc(-n3cnc4cc(Cl)cnc43)ncc2C(=O)NC[C@@H](F)C(C)(C)O)cn1` [Example 366], the IC50 in assay [1] worked out at 7.9 nM; in assay [2] (Homo sapiens, PBMC), 205 nM.

With `CC(C)(O)[C@H](F)CNC(=O)c1cnc(-n2ncc3cc(Cl)cnc32)cc1Nc1cnn(CCCF)c1` [Example 367], the IC50 in assay [1] was 1.3 nM; in assay [2] (Homo sapiens, PBMC), 41 nM.

As for `CC(C)(O)[C@H](F)CNC(=O)c1cnc(-n2ncc3cc(C#N)cnc32)cc1Nc1cnn(CCCF)c1` [Example 368], the IC50 in assay [1] is 2.4 nM; in assay [2] (Homo sapiens, PBMC) it was 61 nM.

As to `CC(F)(F)Cn1cc(Nc2cc(-n3ncc4cc(Cl)cnc43)ncc2C(=O)NC[C@@H](F)C(C)(C)O)cn1` [Example 369], the IC50 worked out at 1.9 nM in assay [1] and 32 nM in assay [2] (Homo sapiens, PBMC).

`CC(C)(O)[C@H](F)CNC(=O)c1cnc(-n2cnc3cc(Cl)cnc32)cc1Nc1cnn(CCCF)c1` [Example 370]: the IC50 in assay [1] was determined as 2.6 nM; in assay [2] (Homo sapiens, PBMC), 84 nM.

With `CC(C)(O)[C@H](F)CNC(=O)c1cnc(-n2ccc3cc(C#N)cnc32)cc1Nc1cnn(CC(F)(F)F)c1` [Example 371], the half-maximal inhibitory concentration (IC50) in assay [1] came to 2.1 nM; in assay [2] (Homo sapiens, PBMC), 45 nM.

As for `CCn1cc(Nc2cc(-n3ccc4cc(C#N)cnc43)ncc2C(=O)NC[C@@H](F)C(C)(C)O)cn1` [Example 372], the IC50 in assay [1] turned out to be 1.2 nM; in assay [2] (Homo sapiens, PBMC), 2 nM.

As to `CC(C)(O)[C@H](F)CNC(=O)c1cnc(-n2ccc3cc(C#N)cnc32)cc1Nc1cnn(C2CCOCC2)c1` [Example 373], the IC50 in assay [1] was 2.4 nM; in assay [2] (Homo sapiens, PBMC), 71 nM.

For `CC(C)(O)[C@H](F)CNC(=O)c1cnc(-n2cnc3cc(Cl)cnc32)cc1Nc1cnn(CCC#N)c1` [Example 374], the IC50 is 3.3 nM in assay [1] and 85 nM in assay [2] (Homo sapiens, PBMC).

Regarding `CC(C)(O)[C@H](F)CNC(=O)c1cnc(-n2cnc3cc(C#N)cnc32)cc1Nc1cnn(CC(F)F)c1` [Example 375], the IC50 in assay [1] was 1.8 nM; in assay [2] (Homo sapiens, PBMC) it was 156 nM.

For `CC(C)(O)[C@H](F)CNC(=O)c1cnc(-n2ncc3cc(C#N)cnc32)cc1Nc1cnn(CCC#N)c1` [Example 376], the IC50 was 2.1 nM in assay [1] and 349 nM in assay [2] (Homo sapiens, PBMC).

In the case of `CC(C)(O)[C@H](F)CNC(=O)c1cnc(-n2ncc3cc(Cl)cnc32)cc1Nc1cnn(CCC#N)c1` [Example 377], the concentration for half-maximal inhibition (IC50) amounted to 2.7 nM in assay [1] and 440 nM in assay [2] (Homo sapiens, PBMC).

As for `CCCn1cc(Nc2cc(-n3ncc4cc(C#N)cnc43)ncc2C(=O)NC[C@@H](F)C(C)(C)O)cn1` [Example 380], the IC50 in assay [1] turned out to be 2.9 nM; in assay [2] (Homo sapiens, PBMC), 228 nM.

Turning to `CCCn1cc(Nc2cc(-n3ncc4cc(Cl)cnc43)ncc2C(=O)NC[C@@H](F)C(C)(C)O)cn1` [Example 381], the IC50 in assay [1] came out at 2.5 nM; in assay [2] (Homo sapiens, PBMC), 41 nM.

Regarding `CCCn1cc(Nc2cc(-n3cnc4cc(Cl)cnc43)ncc2C(=O)NC[C@@H](F)C(C)(C)O)cn1` [Example 382], the IC50 in assay [1] came out at 2.5 nM; in assay [2] (Homo sapiens, PBMC) it was 482 nM.
